The values that follow come from PMC8876231, “Analogues of Natural Chalcones as Efficient Inhibitors of AKR1C3” (Metabolites, 2022).

Several values for one entry are separate records, joined by “and”; a condition that tells them apart may be missing. Equal values may be shown once.

For orientation: inhibition means how much of the control response was suppressed. By IC50 is commonly meant the midpoint of a concentration-inhibition curve.

Test [1] has as its target T1, AKR1C3 (Homo sapiens, UniProt P42330).
T1 construct: GST (own knowledge: pGEX vectors encode N-terminal GST); made in house; host or cells: E. coli BL21 DE3 Codon Plus RP, lysate
T1 sequence (P42330 1-323): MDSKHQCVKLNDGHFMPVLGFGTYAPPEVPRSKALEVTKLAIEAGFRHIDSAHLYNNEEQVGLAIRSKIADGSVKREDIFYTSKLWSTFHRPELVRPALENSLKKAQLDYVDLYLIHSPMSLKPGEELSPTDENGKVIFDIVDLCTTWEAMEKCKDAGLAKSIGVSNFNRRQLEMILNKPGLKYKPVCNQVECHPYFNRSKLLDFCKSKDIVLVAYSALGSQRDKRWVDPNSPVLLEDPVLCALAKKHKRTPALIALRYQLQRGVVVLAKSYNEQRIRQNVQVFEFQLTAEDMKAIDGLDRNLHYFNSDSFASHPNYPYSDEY
Put plainly: AKR1C3 enzymatic inhibition assay (∆4-androstene-3,17-dione to testosterone). Type of test: biochemical. The following applies: 10 µM compound, ∆4-androstene-3,17-dione reduction, triplicates, mean ± SD. The text has this:
For enzymatic assays and inhibitor testing, all enzymes were cloned into bacterial or mammalian expression vectors. AKR1C3 and the human hydroxysteroid dehydrogenases HSD17B1, HSD17B2, HSD17B4 (SDR domain), HSD17B7, and HSD17B10 were cloned into a pGEX vector as described in [71, 72]. The coding sequences for AKR1C1, AKR1C2, and AKR1C4 were cloned by Gateway technology into the pcDNA3-N-MycDest vector according to the manufacturer’s instructions (Life Technologies, Carlsbad, CA, USA). The p11 plasmid coding for HSD17B14 (S205 variant) was a gift from Udo Opperman SGC Oxford, UK. For assays with HSD17B3, HEK293 cells stably expressing HSD17B3 were used. Enzymes were expressed in E. coli BL21 DE3 or E. coli BL21 DE3 Codon Plus RP (Stratagene, San Diego, CA, USA) or in HEK293 cells as described in [71, 72, 73]. Bacterial and cell pellets were stored at −20 °C and −80 °C, respectively, until use.
Inhibition assays were carried out as described in [71, 74]. […] For a detailed assay setup, see Supplementary Table S6. The incubation at 37 °C was stopped with 0.21 M ascorbic acid in methanol:acetic acid 99:1 (v:v) after the time needed to convert approximately 30% of the substrate in a control assay with 1% DMSO, without inhibitor candidate. Substrates and products were extracted from the reaction mixture by solid-phase extraction using C18 cartridges (Phenomenex, Aschaffenburg, Germany) and separated by RP–HPLC in a Beckman–Coulter HPLC Gold system, using the Luna 5 µm C18(2), 125 × 4.0 mm column (Phenomenex). The mobile phases used were H2O:ACN (57:43 (v:v); for assays of estrone (E1) to oestradiol (E2), E2 to E1, and ∆4-androstene-3,17-dione to testosterone conversion), H2O:ACN (49:51 (v:v); for assays of progesterone to 20α-hydroxyprogesterone conversion), and H2O:MeOH (35:65 (v:v) for assays of dihydrotestosterone (DHT) to 3α-androstanediol conversion) at a flow rate of 1 mL/min. Radioactivity was detected by online scintillation counting by using a radioactivity monitor (LB506D, Berthold Technologies, Bad Wildbad, Germany). Conversion of substrates to products was determined by integration of the peak area of the substrate and product peaks in percent. For calculation of inhibition, the conversion of control assay (assay without inhibitor) was set to 0% inhibition. All assays were run in triplicates, and mean values ± SD are reported.
For the determination of IC50 values, percent inhibition values were fitted using the Enzyme Kinetics module of SigmaPlot 13.0 and the one-site ligand-binding model according to the formula f = Bmax * abs(x)/(Kd + abs(x)).
Table S6: Activity assay setup […]
E1: estrone; E2: 17β-estradiol, A: Δ4-androstene-3,17-dione; T: testosterone, P: progesterone, 20αOHP: 20α-hydroxyprogesterone, DHT: dihydrotestosterone, 3α-Adiol: 3α-androstanediol, NaPi: 100 mM Na-phosphate buffer; PI: C0mplete protease inhibitor (Roche);. E.coli - Expression in E.coli BL21 DE3 Codon Plus RP except E.coli BL21 DE3 […]
application to antiparasitic and natural product synthesis. Eur J Org Chem […]
Synthesis of Xanthohumol analogues and discovery of potent thioredoxin reductase inhibitor as potential anticancer agent. J Med Chem 2015, 58,

Test [2] concerns AKR1C3. To be noted: co-crystallised ligand of PDB 3UWE; cited from earlier work.
The next test concerns 17β-HSD. More on the design: method as in PMID 11205867. The following applies: human placental microsomes, compound concentration 10 µM; cited from earlier work.
The target in another test is aromatase. The arrangement: method as in PMID 11205867. To be noted: human placental microsomes; cited from earlier work.
The next test has as its system DU145. More on the design: method as in PMID 12706007. The following applies: human prostate cancer cell line DU145; read-out: IC50 growth inhibition DU145; cited from earlier work.
A further test has as its system LNCaP. The arrangement: method as in PMID 12706007. The following applies: human prostate cancer cell line LNCaP; read-out: IC50 growth inhibition LNCaP; cited from earlier work.

As to `COc1cc(O)cc(O)c1C(=O)/C=C/c1ccc(F)cc1` [Compound 27], the “AKR1C3 Inhibition at 10 µM [%]” value at AKR1C3 [1] (10 µM) is 26.1% and 20.3 ± 8.4%.

`O=C(/C=C/c1ccc(O)c(O)c1)c1ccc(O)cc1O` [Butein (17), butein, reference compound]: the inhibition at 10 µM against AKR1C3 [1] came out at 37.2 ± 1.4%.

With `O=C(/C=C/c1ccc(F)cc1)c1c(O)cc(O)cc1O` [Compound 26], at AKR1C3 [1], the “AKR1C3 Inhibition at 10 µM [%]” value was found to be 68.5 ± 6.4%.

Turning to `COc1cc(O)cc(O)c1C(=O)/C=C/c1ccc(O)cc1` [Compound 24], the “AKR1C3 Inhibition at 10 µM [%]” value on AKR1C3 [1] is on record as 24.6 ± 4.8%.

As to `COc1cc(O)cc(O)c1C(=O)/C=C/c1ccc(Cl)cc1` [Compound 28], the “AKR1C3 Inhibition at 10 µM [%]” value on AKR1C3 [1] (10 µM) was 20.3% and 26.1 ± 2.0%.

Consider `O=C(O)c1cccc(Oc2ccccc2)c1` [3-phenoxybenzoic acid], for which the IC50 in the test on AKR1C3 [2] is 0.68 µM.

As to `O=C(/C=C/c1ccc(Cl)cc1)c1c(O)cc(O)cc1O` [Compound 22], at AKR1C3 [1], the “AKR1C3 Inhibition at 10 µM [%]” value was found to be 70.8 ± 3.8%.

For `O=C(/C=C/c1ccc(O)cc1)c1c(O)cc(O)cc1O` [Compound 29, naringenin chalcone], at AKR1C3 [1], the “AKR1C3 Inhibition at 10 µM [%]” value is reported as 40.6 ± 7.7%. Also, in the test on 17β-HSD, the 17β-HSD inhibition is on record as 2.4%. For the same compound, the IC50 on aromatase is 2.6 µM.

The compound `O=C(/C=C/c1ccc(O)cc1)c1ccc(O)cc1O` [Isoliquiritigenin (16), isoliquiritigenin, reference compound] showed an inhibition at 10 µM against AKR1C3 [1] of 31.1 ± 3.2%. Further, the IC50 in the test with DU145 was 11 µM; in the test with LNCaP it was 13 µM. Further, the 17β-HSD inhibition in the test with 17β-HSD was 10%.
